The source of these data is patent publication US11345694B2, “Antibacterial compounds” (DISCUVA LTD., priority 2017, dated 2022).

Values after ≈ are worked out from the molar mass of the structure shown.

For orientation: MIC means the least concentration at which growth counts as inhibited. Usually IC50 stands for the concentration at which inhibition is half-maximal.

The test system of assay [1] is K. pneumoniae NCTC 13438 (KP1). Nature of the assay: MIC broth microdilution. The class given is cell-based, Klebsiella pneumoniae. Conditions: Klebsiella pneumoniae, NCTC13438. In a few lines: (§1)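 Growth inhibition read after 20-24 hour incubation at 37° C in ambient atmosphere; MIC is the lowest compound concentration with no growth. Planktonic bacteria in cation-adjusted Müller-Hinton broth were exposed to two-fold dilutions (0.39-200 μM final; ≤2% DMSO final) per CLSI guidelines.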
On the technique in general: Broth dilution looks for growth in wells or tubes with falling amounts of substance.

Assay [2] has as its system human hepatocarcinoma cell line ATCC HB-8065 (HepG2). The assay is described as follows: Human cell viability (CellTiter-Glo). It is filed as cell-based. Conditions: Homo sapiens; HepG2 cells, 24 h incubation, CellTiter-Glo luminescence, 0.2-100 μM; read-out: IC50 values against the HepG2 cell line. The procedure, abridged:
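HepG2 cells were seeded at 20,000 cells/well in MEM with 10% FBS and, after 24 h, exposed for 24 h at 37° C. to two-fold dilutions (final 0.2-100 μM) in MEM with 1% FBS and 1% DMSO. Viability was read by CellTiter-Glo luminescence, with IC50 from a 4-parameter logistic fit.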
Background: ATP-based viability assays read luminescence as a measure of living cells.

In assay [3] the test system is E. coli NCTC 13441 (UPEC). The assay is described as follows: MIC broth microdilution. The class given is cell-based, Escherichia coli. Conditions: Escherichia coli, NCTC13441. In a few lines: (§2)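 Read-out is visible growth: the MIC is the lowest compound concentration that prevents it after incubating 20-24 hours at 37° C in air. Compounds span 0.39-200 μM final (two-fold steps, up to 2% DMSO) in cation-adjusted Müller-Hinton broth, following CLSI guidelines for planktonic bacteria.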

Assay [4] relates to Acinetobacter baumannii ATCC 17978 (AB). The assay is described as follows: MIC broth microdilution. It is filed as cell-based. To be noted: ATCC17978. In a few lines: as §2
In assay [5] the test system is Klebsiella pneumoniae ATCC 10031 (KP2). The assay is described as follows: MIC broth microdilution. It is filed as cell-based. To be noted: ATCC10031. The procedure, abridged:
as §1

In assay [6] the test system is Pseudomonas aeruginosa ATCC 33359 (PA). The assay is described as follows: MIC broth microdilution. Conditions: ATCC33359. The class given is cell-based. In a few lines: as §2
Assay [7] has as its system Staphylococcus aureus ATCC 35556 (SA). The assay is described as follows: MIC broth microdilution. The class given is cell-based. To be noted: ATCC35556. The procedure, abridged: as §2
In assay [8] the test system is Escherichia coli K12 (EC). Nature of the assay: MIC broth microdilution. It is filed as cell-based. In a few lines: as §2

For the molecule `Cc1cc(-c2[nH]c(CN)nc2-c2ccc3c(c2)OCCO3)ccn1` [Example 87, (4-(2,3-Dihydrobenzo[b][1,4]dioxin-6-yl)-5-(2-methylpyridin-4-yl)-1H-imidazol-2-yl)methanamine], the minimal inhibitory concentration (MIC) in assay [1] was 10 to 100 µM (≈ 3.22 to 32.2 µg/mL); in assay [3], 1 to 10 µM (≈ 0.322 to 3.22 µg/mL); in assay [4] it was over 100 µM; in assay [5], at most 1 µM; in assay [6], over 100 µM; in assay [7], over 100 µM. In assay [8], the minimum inhibitory concentration (MIC) was in the range of 1 to 10 µM (≈ 0.322 to 3.22 µg/mL). For the same molecule, the half-inhibitory concentration (IC50) in assay [2] was over 100 µM.
As for `Cc1cc(-c2nc(N)[nH]c2-c2ccc3c(c2)N(CCN)C(=O)CO3)ccn1` [Example 89, 6-(2-Amino-4-(2-methylpyridin-4-yl)-1H-imidazol-5-yl)-4-(2-aminoethyl)-2H-benzo[b][1,4]oxazin-3(4H)-one], the MIC in assay [1] is 10 to 100 µM (≈ 3.64 to 36.4 µg/mL); in assay [3], 1 to 10 µM (≈ 0.364 to 3.64 µg/mL); in assay [4], over 100 µM; in assay [5] it was at most 1 µM; in assay [6] it was over 100 µM; in assay [7], over 100 µM. This molecule also displayed a minimum inhibitory concentration (MIC) in assay [8] of 1 to 10 µM (≈ 0.364 to 3.64 µg/mL). In assay [2], the IC50 is over 100 µM.
Regarding `Cc1cc(-c2nc(N)[nH]c2-c2ccc3c(c2)N(CCO)CCO3)ccn1` [Example 90, 2-(6-(2-Amino-4-(2-methylpyridin-4-yl)-1H-imidazol-5-yl)-2,3-dihydro-4H-benzo[b][1,4]oxazin-4-yl)ethan-1-ol], the MIC is 1 to 10 µM (≈ 0.351 to 3.51 µg/mL) in assay [1]; at most 1 µM in assay [3]; over 100 µM in assay [4]; at most 1 µM in assay [5]; over 100 µM in assay [6]; over 100 µM in assay [7]. In addition, the minimal inhibitory concentration (MIC) in assay [8] fell in the range of 1 to 10 µM (≈ 0.351 to 3.51 µg/mL). Further, the 50% inhibitory concentration (IC50) in assay [2] was over 100 µM.
Regarding `Cc1cc(-c2[nH]c(N)nc2-c2ccc3c(c2)N(CCN)CCO3)ccn1` [Example 91, 4-(4-(2-Aminoethyl)-3,4-dihydro-2H-benzo[b][1,4]oxazin-6-yl)-5-(2-methylpyridin-4-yl)-1H-imidazol-2-amine], the minimum inhibitory concentration (MIC) in assay [1] was at most 1 µM; in assay [3] it was at most 1 µM; in assay [4], over 100 µM; in assay [5], at most 1 µM; in assay [6], over 100 µM; in assay [7] it was over 100 µM. The minimum inhibitory concentration (MIC) in assay [8] is at most 1 µM. Also, the half-inhibitory concentration (IC50) in assay [2] is over 100 µM.
For the molecule `Cc1cc(-c2[nH]c(N)nc2-c2ccc3c(c2)N(C2CCCC2)CCO3)ccn1` [Example 94, 4-(4-Cyclopentyl-3,4-dihydro-2H-benzo[b][1,4]oxazin-6-yl)-5-(2-methylpyridin-4-yl)-1H-imidazol-2-amine], the minimal inhibitory concentration (MIC) in assay [1] is 1 to 10 µM (≈ 0.375 to 3.75 µg/mL); in assay [3] it was at most 1 µM; in assay [4], over 100 µM; in assay [5] it was at most 1 µM; in assay [6], over 100 µM; in assay [7], over 100 µM. Besides, in assay [8], the MIC is at most 1 µM. Further, the concentration for half-maximal inhibition (IC50) in assay [2] fell in the range of 25 to 100 µM.
